Reference: ChEMBL document CHEMBL5723585, “Data for DCP probe JNJ-54082730” (2024)
The source made the active and inactive calls. The calls are words filed in the database; no cut-off is given here.

What was measured:
[1] = target: 5-hydroxytryptamine receptor 6 (Homo sapiens) (UniProt P50406); experiment: 5-HT6 Eurofins-Cerep binding assay; parameters: ligand concentration 2 nM; conditions: filed as agonist, Compound concentration 10.0 uM
[2] = target: cGMP-dependent 3',5'-cyclic phosphodiesterase (Homo sapiens, UniProt O00408); experiment: Scintillation proximity assay (PDE2A) ( Mean (95% Confidence Interval) = 0.8 -1 nM; Ki = 0.7 nM)
[3] = species: Rattus norvegicus; experiment: Ca2+ channel (L,verapamil site) (phenylalkylamine) Eurofins-Cerep binding assay; assay type: protein assay; parameters: ligand concentration 3 nM; conditions: filed as antagonist, Compound concentration 10.0 uM
[4] = target: Delta-type opioid receptor (Homo sapiens) (UniProt P41143); experiment: delta (DOP) Eurofins-Cerep binding assay; parameters: ligand concentration 0.5 nM; conditions: filed as agonist, Compound concentration 10.0 uM
[5] = target: cAMP and cAMP-inhibited cGMP 3',5'-cyclic phosphodiesterase 10A (Homo sapiens, UniProt Q9Y233); experiment: IC50 of hPDE10A2 in the PDE screen at 1.0 µM
[6] = target: Neuromedin-K receptor (Homo sapiens) (UniProt P29371); experiment: NK3 Eurofins-Cerep binding assay; parameters: ligand concentration 0.4 nM; conditions: filed as antagonist, Compound concentration 10.0 uM
[7] = target: Kappa-type opioid receptor (Homo sapiens) (UniProt P41145); experiment: kappa (KOP) Eurofins-Cerep binding assay; conditions: filed as agonist, Compound concentration 10.0 uM
[8] = target: Sodium-dependent noradrenaline transporter (Homo sapiens) (UniProt P23975); experiment: norepinephrine transporter Eurofins-Cerep binding assay; parameters: ligand concentration 1 nM; conditions: filed as antagonist, Compound concentration 10.0 uM
[9] = target: High affinity 3',5'-cyclic-AMP phosphodiesterase 7A (Homo sapiens, UniProt Q13946); experiment: IC50 of hPDE7A1 in the PDE screen at 1.0 µM
[10] = target: cGMP-specific 3',5'-cyclic phosphodiesterase (Homo sapiens, UniProt O76074); experiment: IC50 of hPDE5A3 in the PDE screen at 1.0 µM
[11] = target: Dual specificity calcium/calmodulin-dependent 3',5'-cyclic nucleotide phosphodiesterase 1B (Homo sapiens, UniProt Q01064); experiment: IC50 of hPDE1B1 in the PDE screen at 1.0 µM
[12] = target: High affinity cGMP-specific 3',5'-cyclic phosphodiesterase 9A (Homo sapiens, UniProt O76083); experiment: IC50 of hPDE9A in the PDE screen at 1.0 µM
[13] = target: Adenosine receptor A1 (Homo sapiens) (UniProt P30542); experiment: A1 Eurofins-Cerep binding assay; parameters: ligand concentration 1 nM; conditions: filed as antagonist, Compound concentration 10.0 uM
[14] = target: 5-hydroxytryptamine receptor 2B (Homo sapiens) (UniProt P41595); experiment: 5-HT2B Eurofins-Cerep binding assay; conditions: filed as agonist, Compound concentration 10.0 uM
[15] = target: Histamine H2 receptor (Homo sapiens) (UniProt P25021); experiment: H2 Eurofins-Cerep binding assay; parameters: ligand concentration 0.075 nM; conditions: filed as antagonist, Compound concentration 10.0 uM
[16] = target: Muscarinic acetylcholine receptor M2 (Homo sapiens) (UniProt P08172); experiment: M2 Eurofins-Cerep binding assay; parameters: ligand concentration 2 nM; conditions: filed as antagonist, Compound concentration 10.0 uM
[17] = target: Neuropeptide Y receptor type 2 (Homo sapiens) (UniProt P49146); experiment: Y2 Eurofins-Cerep binding assay; parameters: ligand concentration 0.015 nM; conditions: filed as agonist, Compound concentration 10.0 uM
[18] = target: Phosphodiesterase 3 (Homo sapiens, UniProt Q14432+Q13370); experiment: IC50 of hPDE3 in the PDE screen at 1.0 µM; assay type: protein assay
[19] = species: Mus musculus; experiment: sst (non-selective) Eurofins-Cerep binding assay; assay type: protein assay; parameters: ligand concentration 0.05 nM; conditions: filed as agonist, Compound concentration 10.0 uM
[20] = species: Rattus norvegicus; experiment: alpha 1 (non-selective) Eurofins-Cerep binding assay; assay type: protein assay; parameters: ligand concentration 0.25 nM; conditions: filed as antagonist, Compound concentration 10.0 uM
[21] = target: C-X-C chemokine receptor type 2 (Homo sapiens) (UniProt P25025); experiment: CXCR2 (IL-8B) Eurofins-Cerep binding assay; conditions: filed as agonist, Compound concentration 10.0 uM
[22] = target: Muscarinic acetylcholine receptor M1 (Homo sapiens) (UniProt P11229); experiment: M1 Eurofins-Cerep binding assay; parameters: ligand concentration 2 nM; conditions: filed as antagonist, Compound concentration 10.0 uM
[23] = target: B2 bradykinin receptor (Homo sapiens) (UniProt P30411); experiment: B2 Eurofins-Cerep binding assay; parameters: ligand concentration 0.3 nM; conditions: filed as agonist, Compound concentration 10.0 uM
[24] = target: Cholecystokinin receptor type A (Homo sapiens) (UniProt P32238); experiment: CCK1 (CCKA) Eurofins-Cerep binding assay; parameters: ligand concentration 0.08 nM; conditions: filed as agonist, Compound concentration 10.0 uM
[25] = target: Endothelin-1 receptor (Homo sapiens) (UniProt P25101); experiment: ETA Eurofins-Cerep binding assay; parameters: ligand concentration 0.03 nM; conditions: filed as agonist, Compound concentration 10.0 uM
[26] = target: Sodium-dependent serotonin transporter (Homo sapiens) (UniProt P31645); experiment: 5-HT transporter Eurofins-Cerep binding assay; parameters: ligand concentration 2 nM; conditions: filed as antagonist, Compound concentration 10.0 uM
[27] = target: Nociceptin receptor (Homo sapiens) (UniProt P41146); experiment: NOP (ORL1) Eurofins-Cerep binding assay; parameters: ligand concentration 0.06 nM; conditions: filed as agonist, Compound concentration 10.0 uM
[28] = species: Rattus norvegicus; experiment: BZD (central) Eurofins-Cerep binding assay; conditions: filed as agonist, Compound concentration 10.0 uM
[29] = target: D(2) dopamine receptor (Homo sapiens) (UniProt P14416); experiment: D2S (h) Eurofins-Cerep binding assay; parameters: ligand concentration 0.3 nM; conditions: filed as antagonist, Compound concentration 10.0 uM
[30] = target: 5-hydroxytryptamine receptor 1B (Homo sapiens) (UniProt P28222); experiment: 5-HT1B Eurofins-Cerep binding assay; parameters: ligand concentration 1 nM; conditions: filed as antagonist, Compound concentration 10.0 uM
Sequence of 5-hydroxytryptamine receptor 1B (Homo sapiens) (P28222 whole entry): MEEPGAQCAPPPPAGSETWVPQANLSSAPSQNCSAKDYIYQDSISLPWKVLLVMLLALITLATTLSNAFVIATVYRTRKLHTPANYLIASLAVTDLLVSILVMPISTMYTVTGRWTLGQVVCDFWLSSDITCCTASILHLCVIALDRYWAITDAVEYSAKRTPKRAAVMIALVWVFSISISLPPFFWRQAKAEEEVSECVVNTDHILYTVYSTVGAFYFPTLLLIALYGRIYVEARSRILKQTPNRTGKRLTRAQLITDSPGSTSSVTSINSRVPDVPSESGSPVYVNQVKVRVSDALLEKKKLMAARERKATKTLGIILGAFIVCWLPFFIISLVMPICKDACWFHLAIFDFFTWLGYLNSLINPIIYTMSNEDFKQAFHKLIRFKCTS

Sequence of cAMP and cAMP-inhibited cGMP 3',5'-cyclic phosphodiesterase 10A (Q9Y233 whole entry): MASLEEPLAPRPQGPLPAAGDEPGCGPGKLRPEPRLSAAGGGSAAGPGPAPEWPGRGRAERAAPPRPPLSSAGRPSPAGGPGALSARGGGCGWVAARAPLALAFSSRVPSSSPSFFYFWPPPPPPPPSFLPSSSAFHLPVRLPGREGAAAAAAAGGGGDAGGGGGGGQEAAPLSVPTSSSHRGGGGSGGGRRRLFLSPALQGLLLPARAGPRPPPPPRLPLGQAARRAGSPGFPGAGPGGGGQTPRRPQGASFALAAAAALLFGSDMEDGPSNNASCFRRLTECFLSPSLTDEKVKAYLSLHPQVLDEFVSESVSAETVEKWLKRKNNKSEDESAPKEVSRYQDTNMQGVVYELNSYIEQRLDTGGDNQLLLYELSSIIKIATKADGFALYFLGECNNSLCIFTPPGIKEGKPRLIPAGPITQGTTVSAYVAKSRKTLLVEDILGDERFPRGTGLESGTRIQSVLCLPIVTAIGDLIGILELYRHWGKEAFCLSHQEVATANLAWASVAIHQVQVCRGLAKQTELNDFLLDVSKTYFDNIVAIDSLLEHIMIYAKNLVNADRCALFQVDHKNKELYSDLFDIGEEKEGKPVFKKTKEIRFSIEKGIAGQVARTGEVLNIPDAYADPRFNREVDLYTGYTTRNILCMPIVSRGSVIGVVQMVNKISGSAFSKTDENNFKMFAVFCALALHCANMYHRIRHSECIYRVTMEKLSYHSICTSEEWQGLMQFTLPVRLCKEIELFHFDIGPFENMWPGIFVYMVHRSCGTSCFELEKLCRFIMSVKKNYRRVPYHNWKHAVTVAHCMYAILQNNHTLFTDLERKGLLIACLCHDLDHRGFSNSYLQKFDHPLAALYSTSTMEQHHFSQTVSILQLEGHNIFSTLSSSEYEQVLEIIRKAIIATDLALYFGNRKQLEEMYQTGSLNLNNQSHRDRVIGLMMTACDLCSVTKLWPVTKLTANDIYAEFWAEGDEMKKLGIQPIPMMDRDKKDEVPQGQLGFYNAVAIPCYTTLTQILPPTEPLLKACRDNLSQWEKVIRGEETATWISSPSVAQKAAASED
Sequence of High affinity 3',5'-cyclic-AMP phosphodiesterase 7A (Q13946 whole entry): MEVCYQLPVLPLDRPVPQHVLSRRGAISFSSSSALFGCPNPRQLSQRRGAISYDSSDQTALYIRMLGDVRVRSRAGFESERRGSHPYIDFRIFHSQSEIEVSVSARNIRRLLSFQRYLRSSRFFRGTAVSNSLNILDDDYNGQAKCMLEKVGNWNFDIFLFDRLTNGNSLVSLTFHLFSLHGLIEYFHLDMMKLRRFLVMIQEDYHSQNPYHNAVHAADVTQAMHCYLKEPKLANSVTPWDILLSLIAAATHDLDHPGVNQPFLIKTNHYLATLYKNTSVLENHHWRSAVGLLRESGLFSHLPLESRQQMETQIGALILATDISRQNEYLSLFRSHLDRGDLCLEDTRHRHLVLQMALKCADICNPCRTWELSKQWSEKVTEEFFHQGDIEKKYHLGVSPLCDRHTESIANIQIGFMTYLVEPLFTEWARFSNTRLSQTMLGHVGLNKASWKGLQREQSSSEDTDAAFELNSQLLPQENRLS
Sequence of 5-hydroxytryptamine receptor 6 (Homo sapiens) (P50406 whole entry): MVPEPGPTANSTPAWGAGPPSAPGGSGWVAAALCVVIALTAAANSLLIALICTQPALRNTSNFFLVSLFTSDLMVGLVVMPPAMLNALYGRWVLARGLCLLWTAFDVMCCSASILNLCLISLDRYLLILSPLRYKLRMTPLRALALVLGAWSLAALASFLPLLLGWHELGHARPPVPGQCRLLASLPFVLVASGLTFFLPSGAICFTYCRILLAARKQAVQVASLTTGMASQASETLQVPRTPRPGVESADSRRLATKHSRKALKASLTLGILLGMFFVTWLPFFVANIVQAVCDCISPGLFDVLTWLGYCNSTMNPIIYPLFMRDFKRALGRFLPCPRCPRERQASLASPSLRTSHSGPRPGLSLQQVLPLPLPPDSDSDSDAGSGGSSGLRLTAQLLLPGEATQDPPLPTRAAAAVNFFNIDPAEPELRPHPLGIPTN
Sequence of B2 bradykinin receptor (Homo sapiens) (P30411 whole entry): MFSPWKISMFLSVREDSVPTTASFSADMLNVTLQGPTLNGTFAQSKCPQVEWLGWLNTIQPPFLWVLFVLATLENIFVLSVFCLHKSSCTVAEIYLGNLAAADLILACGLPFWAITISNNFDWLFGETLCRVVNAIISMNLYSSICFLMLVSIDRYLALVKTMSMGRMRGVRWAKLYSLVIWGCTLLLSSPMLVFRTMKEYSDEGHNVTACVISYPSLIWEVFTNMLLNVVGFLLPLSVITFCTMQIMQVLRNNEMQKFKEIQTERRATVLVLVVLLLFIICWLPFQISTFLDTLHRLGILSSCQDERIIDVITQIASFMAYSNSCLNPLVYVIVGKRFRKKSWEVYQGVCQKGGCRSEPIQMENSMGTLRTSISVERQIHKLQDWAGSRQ
Sequence of Neuromedin-K receptor (Homo sapiens) (P29371 whole entry): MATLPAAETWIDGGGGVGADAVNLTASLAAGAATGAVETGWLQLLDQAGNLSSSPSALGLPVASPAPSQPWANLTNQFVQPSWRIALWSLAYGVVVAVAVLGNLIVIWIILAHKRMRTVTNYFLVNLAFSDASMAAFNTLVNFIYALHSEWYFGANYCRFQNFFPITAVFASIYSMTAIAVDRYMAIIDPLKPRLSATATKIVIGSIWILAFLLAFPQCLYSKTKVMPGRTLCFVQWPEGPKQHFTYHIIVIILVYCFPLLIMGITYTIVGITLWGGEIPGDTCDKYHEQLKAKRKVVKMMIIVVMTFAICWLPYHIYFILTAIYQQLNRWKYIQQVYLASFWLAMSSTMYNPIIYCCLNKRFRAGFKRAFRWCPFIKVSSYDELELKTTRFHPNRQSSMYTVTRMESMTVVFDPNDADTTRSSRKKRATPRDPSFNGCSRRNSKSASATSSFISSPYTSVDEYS
Sequence of Endothelin-1 receptor (Homo sapiens) (P25101 whole entry): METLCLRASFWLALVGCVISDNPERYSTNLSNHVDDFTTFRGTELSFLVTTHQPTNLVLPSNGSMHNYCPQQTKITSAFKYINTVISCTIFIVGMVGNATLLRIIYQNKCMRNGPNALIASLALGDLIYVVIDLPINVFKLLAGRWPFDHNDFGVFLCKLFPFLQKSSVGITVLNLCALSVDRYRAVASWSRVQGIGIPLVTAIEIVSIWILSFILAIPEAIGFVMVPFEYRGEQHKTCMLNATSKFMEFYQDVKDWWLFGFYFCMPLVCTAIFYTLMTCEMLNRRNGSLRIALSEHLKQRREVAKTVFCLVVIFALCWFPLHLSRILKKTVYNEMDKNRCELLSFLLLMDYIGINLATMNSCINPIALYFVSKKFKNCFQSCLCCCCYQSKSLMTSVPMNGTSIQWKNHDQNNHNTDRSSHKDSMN
Sequence of Kappa-type opioid receptor (Homo sapiens) (P41145 whole entry): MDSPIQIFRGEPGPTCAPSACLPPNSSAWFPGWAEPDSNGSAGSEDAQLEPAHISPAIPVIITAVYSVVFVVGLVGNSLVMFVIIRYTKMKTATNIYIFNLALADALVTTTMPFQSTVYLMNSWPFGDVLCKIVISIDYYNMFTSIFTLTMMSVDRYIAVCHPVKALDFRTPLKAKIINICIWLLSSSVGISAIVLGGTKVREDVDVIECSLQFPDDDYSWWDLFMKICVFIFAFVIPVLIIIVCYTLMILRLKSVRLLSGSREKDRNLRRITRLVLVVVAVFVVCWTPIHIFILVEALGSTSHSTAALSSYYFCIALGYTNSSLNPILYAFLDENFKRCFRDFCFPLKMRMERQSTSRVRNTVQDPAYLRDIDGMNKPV
Sequence of Muscarinic acetylcholine receptor M1 (Homo sapiens) (P11229 whole entry): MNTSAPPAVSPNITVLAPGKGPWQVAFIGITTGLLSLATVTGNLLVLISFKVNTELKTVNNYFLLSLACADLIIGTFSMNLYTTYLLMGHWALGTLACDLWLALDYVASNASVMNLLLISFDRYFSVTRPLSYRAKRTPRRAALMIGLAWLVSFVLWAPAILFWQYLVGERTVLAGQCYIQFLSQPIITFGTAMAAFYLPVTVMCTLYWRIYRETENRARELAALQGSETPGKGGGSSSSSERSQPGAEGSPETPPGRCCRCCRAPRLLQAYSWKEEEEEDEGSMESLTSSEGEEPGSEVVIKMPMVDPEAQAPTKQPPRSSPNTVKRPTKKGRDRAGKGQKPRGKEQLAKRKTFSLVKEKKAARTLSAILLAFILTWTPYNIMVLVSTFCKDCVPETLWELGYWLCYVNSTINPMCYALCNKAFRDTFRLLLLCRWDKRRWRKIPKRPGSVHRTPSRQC
Sequence of Adenosine receptor A1 (Homo sapiens) (P30542 whole entry): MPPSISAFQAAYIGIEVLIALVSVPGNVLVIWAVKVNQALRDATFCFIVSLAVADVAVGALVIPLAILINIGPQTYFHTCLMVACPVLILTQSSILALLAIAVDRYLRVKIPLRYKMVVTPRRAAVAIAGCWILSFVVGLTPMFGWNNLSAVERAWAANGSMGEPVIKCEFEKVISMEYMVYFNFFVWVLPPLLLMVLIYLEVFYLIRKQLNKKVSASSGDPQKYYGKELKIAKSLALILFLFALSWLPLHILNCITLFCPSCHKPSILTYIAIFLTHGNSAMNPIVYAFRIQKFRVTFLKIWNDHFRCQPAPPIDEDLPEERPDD

Cc1cc(C(=O)N2CC[C@@H](C)[C@H](c3cc(C(F)F)nc4ncnn34)C2)cc(C)n1
residual activity [1]: 100%
IC50 [2]: 0.0009 µM (active)
residual activity [3]: 96.6%
residual activity [4]: 90.2%
IC50 [5]: 0.099 µM (not active)
Ki [5]: 0.03 µM
residual activity [6]: 99.8%
residual activity [7]: 91%
residual activity [8]: 99%
IC50 [9]: > 10 µM (not active)
IC50 [10]: > 10 µM (not active)
IC50 [11]: > 10 µM (not active)
IC50 [12]: > 10 µM (not active)
residual activity [13]: 107%
residual activity [14]: 118%
residual activity [15]: 103%
residual activity [16]: 115%
residual activity [17]: 109%
IC50 [18]: 6.643 µM
Ki [18]: 3.32 µM
residual activity [19]: 122%
residual activity [20]: 104%
residual activity [21]: 109%
residual activity [22]: 92.8%
residual activity [23]: 103%
residual activity [24]: 104%
residual activity [25]: 102%
residual activity [26]: 117%
residual activity [27]: 103%
residual activity [28]: 105%
residual activity [29]: 104%
residual activity [30]: 102%
